# How the values were obtained:
# [1] = target: T1, hNcl fragment consisting of RBD1 and 2 (RBD1,2) (Homo sapiens, UniProt P19338); assay: Surface plasmon resonance with hNcl fragment RBD1,2; format: binding; settings: SPR, immobilized RBD1,2, 25 °C
# T1 construct: using an hNcl fragment consisting of RBD1 and 2 (RBD1,2)
# Protocol: Moreover, to obtain information concerning the protein region involved in the interaction with 12, a new SPR analysis was carried out using an hNcl fragment consisting of RBD1 and 2 (RBD1,2).
# A Biacore 3000 optical biosensor was used to conduct Surface Plasmon Resonance (SPR) experiments. Proteins (hNcl and RBD 1,2) were dissolved at 100 µg/mL in 50 mM sodium acetate at a pH 4.5 and injected at a flow rate of 5 µL/min on a research-grade CM5 sensor chip (GE Healthcare, Chicago, IL, USA) to achieve immobilization. A standard amine-coupling protocol was used. Compound 12 was dissolved in 100% DMSO to obtain 4 mM solutions and diluted in […] (v/v) in PBS (10 mM NaH2PO4, 137 mM NaCl, 2.7 mM KCl pH 7.4). The final concentration of DMSO was 0.1% (v/v). This stock solution was used as a starting point to produce a four-concentration points series (0.025, 0.2, 1, and 4 µM). Measurements were performed at 25 °C, using a flow rate of 5 µL/min flow rate and adopting an association time of 60 s; dissociation of the complex was monitored for 300 s. The resulting sensorgrams were elaborated through the BIAevaluation software (GE Healthcare). Thermodynamic constants were calculated by adequately fitting the experimental curves with a single-site bimolecular interaction model.
# hNcl [2] = target: hNcl (Homo sapiens, UniProt P19338); assay: CETSA apparent melting temperature of hNcl in HeLa cells; format: cell-based; parameters: endogenous in cells; host or cells: HeLa (cervical carcinoma); settings: 20 μM, 2 h
# Chain of hNcl (Homo sapiens, UniProt P19338) (P19338 whole entry): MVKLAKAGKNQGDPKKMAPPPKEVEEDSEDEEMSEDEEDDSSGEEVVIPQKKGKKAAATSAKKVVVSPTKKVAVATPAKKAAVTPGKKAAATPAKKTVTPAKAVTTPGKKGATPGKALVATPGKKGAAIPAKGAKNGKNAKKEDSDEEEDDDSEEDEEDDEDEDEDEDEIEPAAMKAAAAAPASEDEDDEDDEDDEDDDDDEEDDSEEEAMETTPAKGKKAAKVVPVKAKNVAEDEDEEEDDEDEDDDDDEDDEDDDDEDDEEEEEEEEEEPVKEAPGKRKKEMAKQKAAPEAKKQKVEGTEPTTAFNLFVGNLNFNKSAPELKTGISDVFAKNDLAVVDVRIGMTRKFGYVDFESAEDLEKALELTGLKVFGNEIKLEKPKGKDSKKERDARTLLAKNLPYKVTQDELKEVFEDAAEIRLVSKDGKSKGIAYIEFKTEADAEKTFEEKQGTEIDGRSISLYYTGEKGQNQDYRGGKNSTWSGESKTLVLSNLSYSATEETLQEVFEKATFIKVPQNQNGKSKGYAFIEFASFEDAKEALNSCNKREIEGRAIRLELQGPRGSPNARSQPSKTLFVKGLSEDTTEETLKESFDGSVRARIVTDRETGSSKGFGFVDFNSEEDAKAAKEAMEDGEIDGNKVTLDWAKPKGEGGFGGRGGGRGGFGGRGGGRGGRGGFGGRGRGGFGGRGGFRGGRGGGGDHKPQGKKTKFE
# Protocol: The 12/hNcl interaction was also investigated using CETSA and its effect on the hNcl denaturation temperature (Tm) in the cells was analyzed. HeLa cells incubated with 12, oridonin or the vehicle were heated to different temperatures in the 38–61 °C range, and the amount of soluble hNcl remaining at each T value was measured. […] Further CETSAs were performed using various concentrations of the compound (1–20 μM) and the amount of hNcl resisting thermal denaturation at 55.5 °C was then reported in a graph as a function of the concentration of 12 used (Figure S3 and Figure 1E). This experiment allowed the calculation of an EC50 (the compound concentration producing half of the maximum effect on hNcl stabilization) of 5 μM.
# HeLa cells were seeded at 1.5 × 10^6 in 100 mm culture dishes. After 24 h, the cells were treated with compound 12 or oridonin (final concentration 20 μM) and incubated for 2 h in a CO2 incubator at 37 °C. The cells were then collected and centrifuged, and the cell pellets were washed with PBS and gently suspended in 1 mL PBS supplemented with protease inhibitors. […] The cells were then lysed and analyzed, as reported above.
# PBMC = assay: Toxicity against PBMC; format: cell-based
# HeLa cells [3] = assay: Protein neo-synthesis in HeLa cells; format: cell-based, human; settings: 20 μM
# hNcl [4] = assay: hNcl distribution in cell compartments (nucleus, cytosol, membrane); format: cell-based, human; settings: HeLa cells, 20 μM, 4 h
# Protocol: The observed decrement of phosphorylated hNcl (p-hNcl) seems to be attributable to the overall decrease in its levels rather than to a modification of its cellular distribution.
# For cytosol and membrane protein extraction, the HeLa cells were seeded at 1.5 × 10^6 in 100 mm culture dishes and incubated with oridonin (5 μM) or compound 12 (20 μM) for 4 h at 37 °C. The cells were harvested in PBS and centrifuged at 4 °C for 5 min at 600× g. Subsequently, the cell pellets were resuspended in lysis buffer (20 mM Tris HCl pH 7.4, 250 mM sucrose, 1 mM dithiothreitol (DTT), protease inhibitors, and 1 mM EDTA in water), sonicated (5 s pulse–9 s pause for 2 min, amplitude 42%) and then centrifuged at 4 °C for 10 min at 5000× g. The obtained supernatants were ultra-centrifuged at 4 °C for 1 h at 100,000× g, and cytosolic extracts were obtained. Each resulting pellet was resuspended in a lysis buffer and ultracentrifuged at 4 °C for 1 h at 100,000× g. The pellets were then resuspended in 250 μL solubilization buffer (20 mM Tris HCl pH 7.4, 1 mM DTT, 1 mM EDTA, and 1% Triton X-100 in water) and left overnight on an orbital shaker at 4 °C. After that, the solution was centrifuged at 4 °C for 30 min at 50,000× g, and membrane proteins were obtained. […]
# HeLa cells [5] = assay: MTT-based proliferation assay, HeLa cells; format: cell-based; settings: Homo sapiens, 48 h, read-out: IC50, inhibition of proliferation (MTT)
# Protocol: HeLa cells were seeded at 1 × 10^4 cells/well in 96-well plates. The day after the cells were incubated for 48 h with different concentrations of compounds (10–100) μM. The number of viable cells was quantified by MTT ([3-(4,5-dimethylthiazol-2-yl)-2,5-diphenyl tetrazolium bromide]) assay. Absorption at 550 nm for each well was assessed using a microplate reader (LabSystems, Vienna, VA, USA). Half maximal inhibitory concentration (IC50) values were calculated from cell viability dose–response curves and defined as the concentration resulting in 50% inhibition of cell survival as compared to controls.
# HaCat cell lines = assay: Toxicity against HaCat cell line; format: cell-based
# T1 sequence (P19338 300-466 limits assumed): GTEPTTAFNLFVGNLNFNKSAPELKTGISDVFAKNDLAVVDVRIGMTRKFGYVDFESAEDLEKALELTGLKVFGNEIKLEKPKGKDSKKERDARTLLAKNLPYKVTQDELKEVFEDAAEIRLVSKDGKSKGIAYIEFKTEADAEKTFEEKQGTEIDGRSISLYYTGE
smiles,measurement,setting,value
"CC1(CO)CCCC2(C)C1C(O)CC13CC4C(CC12)C4(C(=O)O)C3 (stereo not drawn) [compound 12, 6,19-dihydroxy-ent-trachiloban-17-oic acid]",KD,[1],0.074 ± 0.005 µM
same,koff,[1],0.0053 ± 0.009 s⁻¹
same,Tm of hNcl in cells incubated with compound,hNcl [2],55.5 °C
same,stabilization of hNcl (hNcl vs. T graphs) compared with oridonin,hNcl [2]; 38–61 °C,stabilized hNcl more than oridonin did
same,toxicity: concentration up to which no toxicity was observed,PBMC,> 100 µM
same,protein neo-synthesis vs untreated cells,HeLa cells [3],no significant differences
same,distribution of hNcl in the different cell compartments,hNcl [4],did not show dramatic variations
same,IC50,HeLa cells [5],25 µM
same,toxicity: concentration up to which no toxicity was observed,HaCat cell lines,> 100 µM

# From paper PMC9570042, “Impairment of Nucleolin Activity and Phosphorylation by a Trachylobane Diterpene from Psiadia punctulata in Cancer Cells” (International Journal of Molecular Sciences, 2022)
